From patent US20090023186A1, “USE OF VALPROIC ACID FOR ENHANCING PRODUCTION OF RECOMBINANT PROTEINS IN MAMMALIAN CELLS” (EXCELLGENE SA, priority 2007, published 2009) come the findings set out here.

The experiment relates to CHO DG44 cells. In words: Influence of temperature on IgG batch titer and comparison with sodium butyrate (Example 2). The format is cell-based, Chinese Hamster. Conditions: day 5 after transfection. How it is done: No. 14571C-[…]; Lot No. 6A0093; SAFC Biosciences, Lenexa, Kans., USA, “Ex-Cell” medium; note: “Ex-Cell” medium-as used herein-refers to a medium comprising 4 mmol/l L-glutamine) in a 50-ml filter tube each (TPP AG, Trasadingen, Switzerland; Cat. No. 87050, Lot 20050174). In a separate set, 10 million suspension-adapted CHO DG44 cells were resuspended in 0.5 ml of ProCHO5 serum-free medium with 4 mmol/[…] hypoxanthine and 0.194 g/l thymidine (BioWhittaker (Lonza), Belgium; Cat. No. BE12-[…]; Lot No. 7 MB0040; “ProCHO5” medium; note: “ProCHO5” medium-as used herein-refers to a medium comprising 4 mmol/[…] hypoxanthine and 0.194 g/l thymidine) in a 50-ml filter tube each (TPP AG, Trasadingen, Switzerland; Cat. No. 87050, Lot 20050174). Then 12.5 μg plasmid DNA at a concentration of 1 μg/μl was added in each tube with the following composition 50% (6.25 μg) p-LC (SEQ ID NO: 1) 50% (6.25 μg) p-HC (SEQ ID NO: 3). Plasmid p-LC comprises the genetic information for the production of the light chain of an IgG antibody, plasmid p-HC comprises the genetic information for the production of the heavy chain of an IgG antibody. The particular vector constructs used in the present invention can also be obtained from the inventors. The inventors can be contacted via e-mail at […]. Moreover, commercial services do exist that produce any desired nucleotide sequence even comprising several kilobase pairs including complete expression cassettes in plasmid backgrounds (e.g., Invitrogen, Carlsbad, USA; Geneart, Germany.) Thus, providing the genetic sequence information of the plasmids should enable one of ordinary skill in the art to order the plasmids of the present invention at one of the commercial services listed. After shortly mixing the DNA with the cells by gentle shaking, 25 μg of 25-kd linear polyethyleneimine (“PEI”; Polysciences, Eppelheim, Germany; [2]) were added at a concentration of 1 μg/μl to each of the tubes. After shortly mixing by gentle shaking, the filter tubes containing the cells together with the DNA and PEI were transferred into an orbital shaker (Kühner Shaker Cabinet ISF-4-W, “Kühner shaker”, Kühner AG, Birsfelden, Switzerland), and the cells were incubated for 4 hours at 37° C. in a 5% CO2 atmosphere under shaking at 180 rpm. After that time, 4.5 ml of Ex-Cell medium were added to each of the filter tubes containing HEK 293 cells and 4.5 ml of Pro-CHO5 were added to each of the filter tubes containing CHO DG44 cells. […] No. […] Sigma-Aldrich Chemie GmbH, Industriestrasse 25, CH-9471 Buchs SG) was added to the corresponding tubes at the corresponding final concentrations. The cells then were returned into the Kühner shaker. Half the tubes were incubated at 37° C. in a 5% CO2 atmosphere under shaking at 180 rpm, the other half was incubated at 31° C. […] The ELISA was performed as published in prior art. In short, Goat anti-human kappa light chain IgG (Biosource) was used for coating the ELISA-plates, and with AP-conjugated goat anti-human gamma chain IgG (Biosource) the synthesized IgG1 was detected. NPP was used as a substrate for the alkaline phosphatase. Absorption was measured at 405 nm against 490 nm using a microplate reader (SPECTRAmaxTM340; Molecular Devices, Palo Alto, Calif., USA).

Where [1] appears, read: 3.8 mmol/l VPA, relative to control = 1.

Turning to `CCCC(CCC)C(=O)O` [VPA, valproic acid], under setting [1], the “Batch titer increase at 31° C.” value came out at 1.5 ± 0.1 and the “Batch titer increase at 37° C.” value was 2.1 ± 0.1. Moreover, where the note is “31° C. and 37° C.”, the “performance compared with sodium butyrate (batch titer increase)” value is given as “slightly better performance than sodium butyrate”.
